Data taken from ChEMBL document CHEMBL1201862, “PubChem BioAssay data set” (2004).
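Values below derive from 48-hour exposures of cells grown in 96-well plates, with endpoints linearly interpolated between the two concentrations bracketing the appropriate inhibition level. The concentration for 50% growth inhibition is given as GI50.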 Active and inactive are the calls of the source. Cut-off read from the data, not from the text of the source: active = GI50 up to about 1.1 µM and inactive = higher.

Key:
Test in all cases: growth of human tumour cells (NCI), 48 h
[1] = tested on: RPMI-8226
[2] = tested on: UACC-257
[3] = tested on: NCI-H226
[4] = tested on: HCC 2998
[5] = tested on: SNB-75
[6] = tested on: OVCAR-8
[7] = tested on: SK-MEL-2
[8] = tested on: DU-145
[9] = tested on: SK-OV-3
[10] = tested on: RXF 393
[11] = tested on: IGROV-1
[12] = tested on: SN12C
[13] = tested on: SR
[14] = tested on: NCI-H23
[15] = tested on: NCI-H522
[16] = tested on: SF-295
[17] = tested on: KM12
[18] = tested on: A498
[19] = tested on: 786-0
[20] = tested on: LOX IMVI

Measured: GI50

Cc1nc([N+](=O)[O-])cn1-c1nc2ccccn2c1[N+](=O)[O-]
inactive: [1] 64.1 µM | [2] 99.3 µM | [3] > 100 µM | [4] 41.2 µM | [5] 32.9 µM | [6] 86.1 µM | [7] 43.4 µM | [8] 26.5 µM | [9] 47.2 µM | [10] 17.7 µM | [11] 68.9 µM | [12] 30 µM | [13] 42 µM | [14] 47.8 µM | [15] 55 µM | [16] > 100 µM | [17] 48.8 µM | [18] > 100 µM | [19] 61.7 µM

Cc1nc2ccc(NC(=S)Nc3ccccc3)cc2c(=O)n1-c1ccccc1
inactive: [1] 23.6 µM | [2] > 100 µM | [3] > 100 µM | [4] 66.4 µM | [5] > 100 µM | [6] > 100 µM | [7] 16.6 µM | [8] > 100 µM | [20] > 100 µM | [10] > 100 µM | [11] > 100 µM | [12] > 100 µM | [13] > 100 µM | [14] > 100 µM | [15] > 100 µM | [16] > 100 µM | [17] > 100 µM | [18] > 100 µM | [19] > 100 µM

COC(=O)n1c(=O)n(-c2ccccc2)c(=O)n1C(=O)Nc1ccccc1
inactive: [1] 96.4 µM | [2] > 100 µM | [3] > 100 µM | [4] > 100 µM | [5] > 100 µM | [6] > 100 µM | [7] > 100 µM | [8] > 100 µM | [9] > 100 µM | [20] > 100 µM | [10] > 100 µM | [11] > 100 µM | [13] > 100 µM | [14] > 100 µM | [15] > 100 µM | [16] > 100 µM | [17] > 100 µM | [18] > 100 µM | [19] > 100 µM

O=C(O)c1nc2ccccc2nc1NCc1ccc(F)cc1
inactive: [1] 60.4 µM | [2] > 100 µM | [3] 51.6 µM | [4] 99.1 µM | [5] > 100 µM | [6] 53.2 µM | [7] 94.4 µM | [8] 99.8 µM | [20] 36.8 µM | [10] > 100 µM | [11] 46.6 µM | [12] > 100 µM | [13] 42.4 µM | [14] 54 µM | [15] 48.9 µM | [16] 38 µM | [17] 47.1 µM | [18] > 100 µM | [19] 42.8 µM

O=C(Nc1ccc(Cl)cc1)c1cc(S(=O)(=O)N2CCNNC2=O)c(S)cc1Cl
inactive: [1] 55.1 µM | [2] > 100 µM | [3] > 100 µM | [4] > 100 µM | [5] > 100 µM | [6] > 100 µM | [7] > 100 µM | [8] > 100 µM | [20] > 100 µM | [10] 17.4 µM | [11] > 100 µM | [12] > 100 µM | [13] > 100 µM | [15] 24.7 µM | [16] > 100 µM | [17] > 100 µM | [18] > 100 µM | [19] > 100 µM

CCOC(=O)C(CS)NC(=O)CCCCCCCC(=O)NC(CS)C(=O)OCC (configuration not stated)
inactive: [1] > 100 µM | [2] 34.4 µM | [3] > 100 µM | [4] > 100 µM | [5] > 100 µM | [6] > 100 µM | [7] 36.9 µM | [8] > 100 µM | [9] > 100 µM | [20] 86.9 µM | [11] > 100 µM | [12] > 100 µM | [13] 36.3 µM | [14] > 100 µM | [15] 49.1 µM | [16] > 100 µM | [17] > 100 µM | [18] > 100 µM | [19] > 100 µM

O=c1[nH]c2nccn2c2c1SCCN2
inactive: [1] > 100 µM | [2] > 100 µM | [3] > 100 µM | [4] > 100 µM | [5] > 100 µM | [6] > 100 µM | [7] > 100 µM | [8] > 100 µM | [20] > 100 µM | [10] > 100 µM | [11] > 100 µM | [12] > 100 µM | [13] > 100 µM | [14] > 100 µM | [15] > 100 µM | [16] > 100 µM | [17] > 100 µM | [18] > 100 µM | [19] > 100 µM

O=[N+]([O-])/C(C(Cl)=C(Cl)Cl)=C(\N1CCCCC1)n1nnc2ccccc21
inactive: [1] 17.2 µM | [2] 17.9 µM | [3] 20 µM | [5] 25.6 µM | [6] 19.9 µM | [7] 17.1 µM | [8] 18.7 µM | [9] 24.9 µM | [20] 16.7 µM | [10] 16.3 µM | [11] 16.2 µM | [12] 18.3 µM | [13] 16.4 µM | [14] 19.1 µM | [15] 20.3 µM | [16] 17.5 µM | [17] 25.8 µM | [18] 19.2 µM | [19] 18.5 µM

O=C(O)c1ccccc1/C=C1\Cc2ccccc2C1=O
inactive: [1] 71.4 µM | [2] > 100 µM | [3] > 100 µM | [4] > 100 µM | [5] > 100 µM | [6] > 100 µM | [7] 67.1 µM | [8] > 100 µM | [20] 91 µM | [10] > 100 µM | [11] > 100 µM | [12] > 100 µM | [13] > 100 µM | [14] > 100 µM | [15] > 100 µM | [16] > 100 µM | [17] > 100 µM | [18] > 100 µM | [19] > 100 µM

CCOC(=O)C1CCCC1S(=O)(=O)c1ccc(C)cc1 (configuration not stated)
inactive: [1] > 100 µM | [3] > 100 µM | [4] > 100 µM | [5] 84.1 µM | [6] > 100 µM | [8] > 100 µM | [9] > 100 µM | [20] > 100 µM | [10] > 100 µM | [11] > 100 µM | [12] > 100 µM | [13] > 100 µM | [14] > 100 µM | [15] > 100 µM | [16] > 100 µM | [17] > 100 µM | [18] 45.3 µM | [19] > 100 µM

NCCCCN(CCCN)C(=O)OCc1ccccc1
inactive: [1] > 100 µM | [2] > 100 µM | [3] > 100 µM | [4] > 100 µM | [5] > 100 µM | [6] > 100 µM | [7] > 100 µM | [8] > 100 µM | [9] > 100 µM | [10] > 100 µM | [11] > 100 µM | [12] > 100 µM | [13] > 100 µM | [14] > 100 µM | [15] > 100 µM | [16] > 100 µM | [17] > 100 µM | [18] > 100 µM | [19] > 100 µM

CSc1ccc(/C=C/C(=O)c2nc3ccccc3[nH]2)cc1
inactive: [1] 3.02 µM | [2] 20.6 µM | [3] 13.6 µM | [4] 10.7 µM | [5] 13.2 µM | [6] 37.2 µM | [7] 18.1 µM | [8] 1.87 µM | [9] 27.5 µM | [20] 14.5 µM | [11] 30.3 µM | [12] 29.2 µM | [13] 2.35 µM | [14] 23.6 µM | [15] 12.2 µM | [16] 24.3 µM | [17] 14.5 µM | [18] 13.6 µM | [19] 12.7 µM

Nc1ccc(S(=O)(=O)NCc2nccs2)cc1
inactive: [1] 25.8 µM | [2] 17.7 µM | [3] 22.2 µM | [5] 23.2 µM | [6] 32.7 µM | [7] 20 µM | [8] 29 µM | [9] 32.3 µM | [20] 19.9 µM | [10] 29.9 µM | [11] 23.4 µM | [12] 19.2 µM | [13] 31 µM | [14] 22.4 µM | [15] 16.6 µM | [16] 32 µM | [17] 20.9 µM | [18] 17.7 µM | [19] 28.3 µM

[O-][S@@+]1c2ccc3ccccc3c2N[C@@H]2[C@H]1[C@H]1C=C[C@@H]2C1
inactive: [1] 31.6 µM | [2] 56.6 µM | [3] 50.8 µM | [5] 16.9 µM | [6] 35.8 µM | [7] 37.4 µM | [8] 46.9 µM | [9] 42.1 µM | [20] 31.6 µM | [10] 19.5 µM | [11] 21.2 µM | [12] 53.7 µM | [13] 30 µM | [14] 35.3 µM | [15] 21.5 µM | [16] 40.5 µM | [17] 31.1 µM | [18] 71.6 µM | [19] 64.3 µM

O=c1[nH]nc(-c2ccccc2)n1/N=C\c1ccccc1
inactive: [1] > 100 µM | [2] > 100 µM | [3] > 100 µM | [4] > 100 µM | [5] > 100 µM | [6] > 100 µM | [7] > 100 µM | [8] > 100 µM | [20] > 100 µM | [10] 13.2 µM | [12] > 100 µM | [13] > 100 µM | [14] > 100 µM | [15] > 100 µM | [16] 29 µM | [17] > 100 µM | [18] > 100 µM | [19] > 100 µM
